Broadly, the Ki is the dissociation constant of the complex between target and ligand, obtained from inhibition or displacement.

SMILES strings stand for the structures.

The subject of assay [1] is convulsion induced by pentylenetetrazol. The assay can be described thus: Test of potentiating convulsion induced by pentylenetetrazol (inverse agonist activity). Type of assay: in vivo, mice. The following applies: Mus musculus, iv, read-out: ED₅₀. The procedure: Inverse agonist activity was evaluated by the following procedure. A certain amount of a test compound was administered intravenously to 8-16 male mice per group, followed by pentylenetetrazol at a subcuataneous dose of 90 mg/kg. The dose (ED₅₀) at which 50% of mice stayed alive, was calculated by the Probit method.

The target of assay [2] is BDZ receptor. The assay can be described thus: BDZ receptor binding assay (displacement of tritium labeled diazepam). Particulars: cerebral cortex of Wistar rats; 2nM tritium labeled diazepam; 0 °C for 60 minutes; Ki calculated from IC50. The method, then:
This test was carried out according to the modified method of Möhler & Okada, Science, 198, 849-851 (1977).
The BDZ receptor preparation was provided from the cerebral cortex of Wistar rats (male, 11 to 13 week-old). Inhibitory activities of the test compound were determined by the specific binding strengh of tritium labeled diazepam to the receptor. 2nM tritium labeled diazepam and an aqeuous solution of the test compound at 5 or 6 different concentrations were incubated at 0 °C for 60 minutes. The 50 % inhibitory concentration (IC₅₀) was measured by the concentration-response curve.
The inhibitory constant (Ki) was calculated according to the following equation, in which Kd is the dissociation constant of the tritium labeled diazepam and L is the concentration of the labeled ligand. [formula]

For assay [3], the system named is convulsion induced by pentylenetetrazol. The assay can be described thus: Test of suppressing convulsion induced by pentylenetetrazol (agonist activity). The class given is in vivo. Particulars: Mus musculus; male mice; test compound intravenously; pentylenetetrazol subcutaneous 125 mg/kg; dose at which 50% of mice was alive; Probit method; read-out: ED₅₀. The procedure: Agonist activity was evaluated by the following procedure. A certain amount of a test compound was administered intravenously to 8-16 male mice per group, followed by pentylenetetrazol at a subcuataneous dose of 125 mg/kg. The dose (ED₅₀) at which 50% of mice was alive, was calculated by the Probit method.

For `O=c1c2c[nH]c3ccc(F)cc3c-2nn1C1=CCCC1` [I-31], the ED50 in assay [1] stood at 0.81 mg/kg. The Ki in assay [2] is 0.48 nM.
As for `CC(C)/C=C/n1nc2c3ccccc3[nH]cc-2c1=O` [I-21], the Ki in assay [2] is 0.98 nM. In addition, in assay [3], the ED50 is 0.72 mg/kg.
For `CC1CC=C(n2nc3c4ccccc4[nH]cc-3c2=O)CC1` (stereo not drawn) [I-25], the Ki in assay [2] is 3.1 nM. In assay [3], the ED50 worked out at 0.69 mg/kg.
For the compound `C/C=C/n1nc2c3ccccc3[nH]cc-2c1=O` [I-24], the ED50 in assay [1] was 0.23 mg/kg. Further, the Ki in assay [2] was 1 nM.
Consider `CC1(C)C=C(n2nc3c4ccccc4[nH]cc-3c2=O)CO1` [I-39], for which the Ki in assay [2] is 0.29 nM. For the same compound, the ED50 in assay [3] was 0.19 mg/kg.
Consider `O=c1c2c[nH]c3ccccc3c-2nn1C1=CCCCC1` [I-16], for which the Ki in assay [2] was 1.5 nM.
Still for that read-out and setting: the result for `COc1ccc2[nH]cc3c(=O)n(C4=CCOC4)nc-3c2c1` [I-11, 8-Methoxy-2-(2,5-dihydrofuran-3-yl)-2,5-dihydro-3H-pyrazolo[4,3-c]quinolin-3-one] reads 0.69 nM; that for `COc1ccc2c3nn(C4=CCCC4)c(=O)c-3c[nH]c2c1` [I-34], 2.1 nM.
For `O=c1c2c[nH]c3ccccc3c-2nn1C1=CCCC1` [I-1, 2-(Cyclopenten-1-yl)-2,5-dihydro-3H-pyrazolo[4,3-c]quinolin-3-one], the ED50 in assay [1] (male mice, test compound intravenously, pentylenetetrazol subcutaneous 90 mg/kg, dose at which 50% of mice stayed alive, Probit method) was 1.07 mg/kg. Moreover, the Ki in assay [2] was 0.52 nM.
Take `O=c1c2c[nH]c3ccccc3c-2nn1C1=CCOC1` [I-38]: the Ki in assay [2] is 0.59 nM.
For the compound `Cc1ccc2[nH]cc3c(=O)n(C4=CCCC4)nc-3c2c1` [I-36], in assay [1], the ED50 is 0.4 mg/kg. Also, the Ki in assay [2] is 0.48 nM.

These data come from patent publication EP0478964A1, “Pyrazoloquinoline derivatives” (SHIONOGI SEIYAKU KABUSHIKI KAISHA, priority 1990, dated 1992).
